Source: ChEMBL document CHEMBL3232969, “Structure-based design and synthesis of tricyclic IAP (Inhibitors of Apoptosis Proteins) inhibitors” (Bioorg Med Chem Lett, 2014)
Values after ≈ are worked out from the molar mass of the structure shown.

Key:
[1] = Intrinsic clearance in human liver microsomes
[2] = Aqueous solubility of the compound
[3] = Lipophilicity, log D of the compound; conditions: octanol/water
MDA-MB-231 = experiment: Growth inhibition of human MDA-MB-231 cells; type: functional; conditions: Homo sapiens, MDA-MB-231
[4] = Percentage unbound in human plasma
[5] = biological target: E3 ubiquitin-protein ligase XIAP (Homo sapiens, UniProt P98170); experiment: Inhibition of XIAP BIR3 domain (unknown origin) by fluorescence polarization assay
Sequence of E3 ubiquitin-protein ligase XIAP (P98170 whole entry, the tested form may be a part): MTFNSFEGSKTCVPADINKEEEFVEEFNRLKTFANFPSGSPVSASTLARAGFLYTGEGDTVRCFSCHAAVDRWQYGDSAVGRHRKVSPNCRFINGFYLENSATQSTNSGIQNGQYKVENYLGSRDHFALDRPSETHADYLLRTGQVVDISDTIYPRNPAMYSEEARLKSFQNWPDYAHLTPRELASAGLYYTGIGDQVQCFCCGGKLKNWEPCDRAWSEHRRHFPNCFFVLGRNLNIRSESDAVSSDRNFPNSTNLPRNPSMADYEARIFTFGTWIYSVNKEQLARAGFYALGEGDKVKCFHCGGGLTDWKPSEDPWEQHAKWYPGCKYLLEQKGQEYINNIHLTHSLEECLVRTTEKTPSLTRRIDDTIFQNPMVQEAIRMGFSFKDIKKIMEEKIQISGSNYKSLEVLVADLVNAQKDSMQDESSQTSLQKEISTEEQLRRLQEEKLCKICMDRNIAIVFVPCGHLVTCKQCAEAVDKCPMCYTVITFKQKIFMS

SMILES	microsomal CLint ([1]; liver microsomes, CLH)	solubility [2]	logD ([3]; logD)	GI50 (MDA-MB-231)	fraction unbound ([4]; Fu)	IC50 [5]	microsomal CLint ([1]; microsomes, CLH)	microsomal CLint ([1]; liver microsomes)	logD [3]	fraction unbound [4]
CN[C@@H](C)C(=O)N[C@H]1CCC[C@H]2C[C@H]3CCN(CCc4ccc(Br)cc4)C[C@H]3N2C1=O	4.7 µL/min/mg	> 1000 µM	2.2	28 nM	0.17					
CN[C@@H](C)C(=O)N[C@H]1CCC[C@H]2C[C@H]3CCN(CCc4ccccc4F)C[C@H]3N2C1=O	< 4 µL/min/mg		1.4	96 nM	0.49					
CN[C@@H](C)C(=O)N[C@H]1CCC[C@H]2C[C@H]3CCN(CCc4ccccc4OC)C[C@H]3N2C1=O	< 4 µL/min/mg	> 1000 µM	0.9	230 nM	0.34					
CN[C@@H](C)C(=O)N[C@H]1CCC[C@H]2C[C@H]3CCN(CCc4ccc(OC)cc4)C[C@H]3N2C1=O	< 4 µL/min/mg	> 1000 µM	1	2600 nM	0.47					
CN[C@@H](C)C(=O)N[C@H]1CCC[C@H]2C[C@H]3CCN(CCc4ccccc4C)C[C@H]3N2C1=O	6.8 µL/min/mg	> 1000 µM	1.3	370 nM	0.48					
CN[C@@H](C)C(=O)N[C@H]1CCC[C@H]2C[C@H]3CCN(CCc4ccc(C)cc4)C[C@H]3N2C1=O	< 4 µL/min/mg	> 1000 µM	1.6	160 nM	0.32					
CN[C@@H](C)C(=O)N[C@H]1CCC[C@H]2C[C@H]3CCN(CCc4ccccn4)C[C@H]3N2C1=O			-0.2	10000 nM		> 10000 nM				
CN[C@@H](C)C(=O)N[C@H]1CCC[C@H]2C[C@H]3CCN(Cc4ccccc4)C[C@H]3N2C1=O	7.1 µL/min/mg	> 1000 µM	0.8	> 11000 nM	0.52	> 10000 nM				
CN[C@@H](C)C(=O)N[C@H]1CCC[C@H]2C[C@H]3CCN(CC4CCCCC4)C[C@H]3N2C1=O	8.9 µL/min/mg		0.9	2000 nM		> 10000 nM				
CN[C@@H](C)C(=O)N[C@H]1CCC[C@H]2C[C@H]3CCN(C(=O)Cc4ccccc4)C[C@H]3N2C1=O	6.5 µL/min/mg	> 1000 µM	0.4	320 nM	0.66					
CN[C@@H](C)C(=O)N[C@H]1CCC[C@H]2C[C@H]3CCN(C(=O)C(c4ccccc4)c4ccccc4)C[C@H]3N2C1=O	27 µL/min/mg	> 1000 µM	1.4	3000 nM	0.039					
CN[C@@H](C)C(=O)N[C@H]1CCC[C@H]2C[C@H]3CCN(C(=O)OCc4ccccc4)C[C@H]3N2C1=O				> 369 nM	0.42		20 µL/min/mg			
CN[C@@H](C)C(=O)N[C@H]1CCC[C@H]2C[C@H]3CCN(C(=O)Oc4ccccc4)C[C@H]3N2C1=O		700 µM (≈ 300 µg/mL)		910 nM				6.3 µL/min/mg	0.7	0.51
CN[C@@H](C)C(=O)N[C@H]1CCC[C@H]2C[C@H]3CCN(C(=O)Nc4ccccc4)C[C@H]3N2C1=O	6.7 µL/min/mg	> 1000 µM	0.6	3900 nM	0.62					

More lines, main results first:

microsomal CLint ([1]; liver microsomes, CLH)	solubility [2]	logD ([3]; logD)	GI50 (MDA-MB-231)	fraction unbound ([4]; Fu)	IC50 [5]	SMILES	microsomal CLint ([1]; microsomes, CLH)	microsomal CLint ([1]; liver microsomes)	logD [3]	fraction unbound [4]
< 4 µL/min/mg	> 1000 µM	1.3	320 nM	0.51		CN[C@@H](C)C(=O)N[C@H]1CCC[C@H]2C[C@H]3CCN(CCc4ccccc4)C[C@H]3N2C1=O				
5.2 µL/min/mg	> 1000 µM	2.1	970 nM	0.18	> 10000 nM	CN[C@@H](C)C(=O)N[C@H]1CCC[C@H]2C[C@H]3CCN(CCc4ccc(C(F)(F)F)cc4)C[C@H]3N2C1=O				
< 4 µL/min/mg	> 1000 µM	0.9	670 nM	0.47		CN[C@@H](C)C(=O)N[C@H]1CCC[C@H]2C[C@H]3CCN(CCc4cccc(OC)c4)C[C@H]3N2C1=O				
	> 1000 µM	0.2	200 nM			CN[C@@H](C)C(=O)N[C@H]1CCC[C@H]2C[C@H]3CCN(CCc4ccc(O)cc4)C[C@H]3N2C1=O				
6.9 µL/min/mg	> 1000 µM	1.3	310 nM	0.47		CN[C@@H](C)C(=O)N[C@H]1CCC[C@H]2C[C@H]3CCN(CCc4cccc(C)c4)C[C@H]3N2C1=O				
6.6 µL/min/mg	> 1000 µM	1.8	340 nM	0.24		CN[C@@H](C)C(=O)N[C@H]1CCC[C@H]2C[C@H]3CCN(CCc4ccc(Cl)cc4)C[C@H]3N2C1=O				
28 µL/min/mg	> 1000 µM	2.3	260 nM	0.065		CN[C@@H](C)C(=O)N[C@H]1CCC[C@H]2C[C@H]3CCN(CCc4ccc(Cl)c(Cl)c4)C[C@H]3N2C1=O				
< 4 µL/min/mg	> 1000 µM	1	280 nM	0.47		CN[C@@H](C)C(=O)N[C@H]1CCC[C@H]2C[C@H]3CCN(CCc4ccc([N+](=O)[O-])cc4)C[C@H]3N2C1=O				
< 4 µL/min/mg	> 1000 µM	0.9	490 nM			CN[C@@H](C)C(=O)N[C@H]1CCC[C@H]2C[C@H]3CCN(CCc4c[nH]c5ccccc45)C[C@H]3N2C1=O				
	> 1000 µM	0.3	4500 nM			CN[C@@H](C)C(=O)N[C@H]1CCC[C@H]2C[C@H]3CCN(CCc4scnc4C)C[C@H]3N2C1=O				
	> 1000 µM	0.1			> 10000 nM	CN[C@@H](C)C(=O)N[C@H]1CCC[C@H]2C[C@H]3CCN(CCC4=C(C)OCN4C)C[C@H]3N2C1=O				
9.1 µL/min/mg	> 1000 µM	1.3			> 10000 nM	CN[C@@H](C)C(=O)N[C@H]1CCC[C@H]2C[C@H]3CCN(CCc4nc5cc(C)ccc5[nH]4)C[C@H]3N2C1=O				
		1.6	> 11000 nM	0.47	> 10000 nM	CN[C@@H](C)C(=O)N[C@H]1CCC[C@H]2C[C@H]3CCN(CCCc4ccccc4)C[C@H]3N2C1=O				
		0.1			> 10000 nM	CN[C@@H](C)C(=O)N[C@H]1CCC[C@H]2C[C@H]3CCN(CC(C)C)C[C@H]3N2C1=O				
14 µL/min/mg	> 1000 µM	2.7		0.049	> 10000 nM	CN[C@@H](C)C(=O)N[C@H]1CCC[C@H]2C[C@H]3CCN(C(c4ccccc4)c4ccccc4)C[C@H]3N2C1=O				
